Key:
[1] = target: Serine/threonine-protein kinase PLK1 (Homo sapiens, UniProt P53350); experiment: Inhibition of human PLK1 (A33 to F325 residues) expressed in mammalian expression system assessed as residual activity at 5 uM by KINOMEscan assay relative to control
HT-29 [2] = experiment: Induction of apoptosis in human HT-29 cells assessed as early apoptotic cells at 50 uM after 48 hrs by Annexin-V-FITC/propidium iodide staining based flow cytometry (reference value: 1%); format: functional
[3] = target: 3-phosphoinositide-dependent protein kinase 1 (Homo sapiens) (UniProt O15530); experiment: Inhibition of full length human PDPK1 (M1 to Q556 residues) expressed in bacterial expression system assessed as residual activity at 5 uM by KINOMEscan assay relative to control
3-phosphoinositide-dependent protein kinase 1 (Homo sapiens), sequence (O15530 whole entry, the tested form may be a part): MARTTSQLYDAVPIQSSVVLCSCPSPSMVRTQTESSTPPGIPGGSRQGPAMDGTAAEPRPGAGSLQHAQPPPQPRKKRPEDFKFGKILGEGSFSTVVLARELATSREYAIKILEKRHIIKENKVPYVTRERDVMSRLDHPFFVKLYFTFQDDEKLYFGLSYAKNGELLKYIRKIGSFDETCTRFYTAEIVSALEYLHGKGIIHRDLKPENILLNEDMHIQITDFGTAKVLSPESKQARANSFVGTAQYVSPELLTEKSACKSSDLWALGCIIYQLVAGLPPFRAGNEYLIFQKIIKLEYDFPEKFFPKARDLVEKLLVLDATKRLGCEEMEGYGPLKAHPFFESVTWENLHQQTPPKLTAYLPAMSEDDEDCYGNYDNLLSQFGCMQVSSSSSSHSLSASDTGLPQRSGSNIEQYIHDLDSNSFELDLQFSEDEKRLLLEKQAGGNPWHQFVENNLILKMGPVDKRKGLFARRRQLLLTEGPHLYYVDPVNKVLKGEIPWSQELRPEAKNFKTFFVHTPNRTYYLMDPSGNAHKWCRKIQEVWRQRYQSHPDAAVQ

[4] = target: Tyrosine-protein kinase receptor UFO (Homo sapiens) (UniProt P30530); experiment: Inhibition of human AXL (R497 to Y821 residues) expressed in bacterial expression system assessed as residual activity at 5 uM by KINOMEscan assay relative to control
[5] = target: Serine/threonine-protein kinase Chk1 (Homo sapiens) (UniProt O14757); experiment: Inhibition of human CHEK1 (M1 to G289 residues) expressed in bacterial expression system assessed as residual activity at 5 uM by KINOMEscan assay relative to control
Serine/threonine-protein kinase Chk1 (Homo sapiens), sequence (O14757 whole entry, the tested form may be a part): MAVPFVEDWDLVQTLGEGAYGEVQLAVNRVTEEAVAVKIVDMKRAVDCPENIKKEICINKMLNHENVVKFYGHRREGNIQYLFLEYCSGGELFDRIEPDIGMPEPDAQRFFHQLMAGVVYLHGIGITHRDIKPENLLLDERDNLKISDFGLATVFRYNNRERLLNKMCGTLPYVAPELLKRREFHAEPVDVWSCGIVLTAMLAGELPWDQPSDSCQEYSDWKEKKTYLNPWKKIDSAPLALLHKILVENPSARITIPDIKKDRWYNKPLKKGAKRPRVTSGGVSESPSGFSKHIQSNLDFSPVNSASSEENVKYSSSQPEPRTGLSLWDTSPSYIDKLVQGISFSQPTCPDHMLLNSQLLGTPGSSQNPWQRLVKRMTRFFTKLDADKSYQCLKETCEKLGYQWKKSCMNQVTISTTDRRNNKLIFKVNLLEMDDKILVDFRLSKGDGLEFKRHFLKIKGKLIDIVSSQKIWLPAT

[6] = test system: Tyrosine-protein kinase ABL1 (Homo sapiens), P00519 [T315I]; experiment: Inhibition of human phosphorylated ABL1 T315I mutant (S229 to K512 residues) expressed in mammalian expression system assessed as residual activity at 5 uM by KINOMEscan assay relative to control
HT-29 [7] = experiment: Induction of apoptosis in human HT-29 cells assessed as live cells at 25 uM after 48 hrs by Annexin-V-FITC/propidium iodide staining based flow cytometry (reference value: 93.2%); format: functional
[8] = target: Serine/threonine-protein kinase B-raf (Homo sapiens, UniProt P15056); experiment: Binding affinity to human BRAF (S429 to E741 residues) expressed in mammalian expression system by KINOMEscan assay
[9] = target: Phosphatidylinositol 4-phosphate 3-kinase C2 domain-containing subunit beta (Homo sapiens, UniProt O00750); experiment: Inhibition of human PIK3C2B (M1 to L1634 residues) expressed in mammalian expression system assessed as residual activity at 5 uM by KINOMEscan assay relative to control
[10] = target: Dual specificity mitogen-activated protein kinase kinase 2 (Homo sapiens, UniProt P36507); experiment: Inhibition of full length human MEK2 (M1 to V400 residues) expressed in mammalian expression system assessed as residual activity at 5 uM by KINOMEscan assay relative to control
Dual specificity mitogen-activated protein kinase kinase 2, sequence (P36507 whole entry, the tested form may be a part): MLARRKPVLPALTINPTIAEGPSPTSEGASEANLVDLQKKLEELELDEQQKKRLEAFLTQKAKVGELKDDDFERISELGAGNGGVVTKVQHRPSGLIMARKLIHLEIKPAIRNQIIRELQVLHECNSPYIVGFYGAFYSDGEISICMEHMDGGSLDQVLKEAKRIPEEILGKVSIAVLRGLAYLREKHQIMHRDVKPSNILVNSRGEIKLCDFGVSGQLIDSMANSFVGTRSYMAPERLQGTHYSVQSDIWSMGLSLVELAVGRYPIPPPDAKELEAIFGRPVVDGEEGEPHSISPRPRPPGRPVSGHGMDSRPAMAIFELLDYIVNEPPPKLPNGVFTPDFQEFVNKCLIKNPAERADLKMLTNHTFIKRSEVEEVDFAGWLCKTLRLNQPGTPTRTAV

[11] = test system: Mast/stem cell growth factor receptor Kit (Homo sapiens), P10721 [D816V]; experiment: Inhibition of human KIT (I571 to D952 residues) D816V mutant expressed in bacterial expression system assessed as residual activity at 5 uM by KINOMEscan assay relative to control
Mast/stem cell growth factor receptor Kit (Homo sapiens), P10721 [D816V], sequence (P10721 whole entry D816V, the tested form may be a part, canonical isoform): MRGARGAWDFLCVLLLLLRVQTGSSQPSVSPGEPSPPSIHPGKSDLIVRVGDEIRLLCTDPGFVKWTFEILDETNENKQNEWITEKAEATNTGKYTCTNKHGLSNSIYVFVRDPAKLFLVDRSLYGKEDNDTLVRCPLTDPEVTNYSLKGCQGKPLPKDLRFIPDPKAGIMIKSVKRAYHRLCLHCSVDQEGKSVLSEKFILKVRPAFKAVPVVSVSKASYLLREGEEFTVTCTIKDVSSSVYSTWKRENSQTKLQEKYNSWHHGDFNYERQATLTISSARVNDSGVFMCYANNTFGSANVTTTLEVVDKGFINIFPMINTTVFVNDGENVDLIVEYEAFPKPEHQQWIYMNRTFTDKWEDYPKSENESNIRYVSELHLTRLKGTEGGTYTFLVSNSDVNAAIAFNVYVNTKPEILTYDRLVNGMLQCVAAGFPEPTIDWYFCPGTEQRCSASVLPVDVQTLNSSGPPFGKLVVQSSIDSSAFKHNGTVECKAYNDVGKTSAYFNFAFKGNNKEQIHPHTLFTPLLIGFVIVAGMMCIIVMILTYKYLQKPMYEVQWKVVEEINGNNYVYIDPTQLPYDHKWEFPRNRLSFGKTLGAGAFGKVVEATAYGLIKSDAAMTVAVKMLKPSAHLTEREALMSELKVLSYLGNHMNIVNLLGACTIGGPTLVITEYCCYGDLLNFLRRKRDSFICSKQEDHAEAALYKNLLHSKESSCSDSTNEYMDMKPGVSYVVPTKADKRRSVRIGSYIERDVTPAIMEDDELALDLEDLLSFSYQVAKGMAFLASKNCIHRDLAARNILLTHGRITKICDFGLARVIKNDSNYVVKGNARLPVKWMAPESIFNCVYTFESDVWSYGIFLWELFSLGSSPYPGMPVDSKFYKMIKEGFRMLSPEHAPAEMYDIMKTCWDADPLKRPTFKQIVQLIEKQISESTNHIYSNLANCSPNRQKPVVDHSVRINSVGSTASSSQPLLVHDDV

[12] = target: Casein kinase I isoform gamma-2 (Homo sapiens, UniProt P78368); experiment: Inhibition of full length human CSNK1G2 (M1 to K415 residues) expressed in bacterial expression system assessed as residual activity at 5 uM by KINOMEscan assay relative to control
Casein kinase I isoform gamma-2, sequence (P78368 whole entry, looked up, the tested form may be a part, canonical isoform): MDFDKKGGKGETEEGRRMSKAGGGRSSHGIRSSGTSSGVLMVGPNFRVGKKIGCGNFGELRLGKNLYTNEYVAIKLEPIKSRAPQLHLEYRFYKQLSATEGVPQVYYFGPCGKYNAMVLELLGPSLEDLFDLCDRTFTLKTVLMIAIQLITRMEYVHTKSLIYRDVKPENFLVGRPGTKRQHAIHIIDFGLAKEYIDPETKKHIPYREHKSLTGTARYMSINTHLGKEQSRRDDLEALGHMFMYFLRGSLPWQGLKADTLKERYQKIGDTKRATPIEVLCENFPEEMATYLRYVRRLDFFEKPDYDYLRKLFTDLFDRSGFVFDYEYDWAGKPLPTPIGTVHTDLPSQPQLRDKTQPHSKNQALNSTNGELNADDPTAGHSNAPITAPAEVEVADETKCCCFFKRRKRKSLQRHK

[13] = target: Receptor-type tyrosine-protein kinase FLT3 (Homo sapiens) (UniProt P36888); experiment: Inhibition of human FLT3 (V592 to Y969 residues) expressed in bacterial expression system assessed as residual activity at 5 uM by KINOMEscan assay relative to control
[14] = target: Insulin-like growth factor 1 receptor (Homo sapiens, UniProt P08069); experiment: Inhibition of human IGF1R (L972 to D1294 residues) expressed in bacterial expression system assessed as residual activity at 5 uM by KINOMEscan assay relative to control
[15] = test system: Epidermal growth factor receptor (Homo sapiens), P00533 [L858R]; experiment: Inhibition of partial length human EGFR (R669 to V1011 residues) L858R mutant expressed in bacterial expression system assessed as residual activity at 5 uM by KINOMEscan assay relative to control
[16] = target: TGF-beta receptor type-1 (Homo sapiens) (UniProt P36897); experiment: Inhibition of human TGFBR1 (D179 to M503 residues) expressed in bacterial expression system assessed as residual activity at 5 uM by KINOMEscan assay relative to control
[17] = target: Serine/threonine-protein kinase pim-3 (Homo sapiens, UniProt Q86V86); experiment: Binding affinity to human PIM3 (G16 to A317 residues) expressed in bacterial expression system by KINOMEscan assay
[18] = target: Serine/threonine-protein kinase PLK3 (Homo sapiens, UniProt Q9H4B4); experiment: Binding affinity to partial length human PLK3 (A42 to L334 residues) expressed in mammalian expression system by KINOMEscan assay
Serine/threonine-protein kinase PLK3, sequence (Q9H4B4 whole entry, the tested form may be a part): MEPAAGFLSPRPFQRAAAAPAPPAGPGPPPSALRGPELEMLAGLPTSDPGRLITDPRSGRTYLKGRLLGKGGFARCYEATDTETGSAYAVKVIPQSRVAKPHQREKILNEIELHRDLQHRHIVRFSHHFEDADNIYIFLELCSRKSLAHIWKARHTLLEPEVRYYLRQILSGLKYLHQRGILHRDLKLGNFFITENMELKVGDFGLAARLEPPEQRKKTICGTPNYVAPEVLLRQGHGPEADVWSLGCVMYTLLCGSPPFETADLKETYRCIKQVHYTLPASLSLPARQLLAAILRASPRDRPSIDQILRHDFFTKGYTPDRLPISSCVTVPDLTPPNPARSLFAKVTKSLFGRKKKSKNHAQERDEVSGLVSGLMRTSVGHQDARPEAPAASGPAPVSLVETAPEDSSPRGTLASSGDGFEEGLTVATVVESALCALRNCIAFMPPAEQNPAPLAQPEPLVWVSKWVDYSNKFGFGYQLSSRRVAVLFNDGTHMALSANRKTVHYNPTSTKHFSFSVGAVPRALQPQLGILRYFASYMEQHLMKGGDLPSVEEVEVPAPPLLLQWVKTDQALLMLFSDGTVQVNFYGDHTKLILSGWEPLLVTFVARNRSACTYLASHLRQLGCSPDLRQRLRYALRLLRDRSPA

[19] = target: T1, MAP kinase-interacting serine/threonine-protein kinase 1 (Homo sapiens, UniProt Q9BUB5); experiment: Inhibition of full length human MKNK1 (M1 to L424 residues) expressed in mammalian expression system assessed as residual activity at 5 uM by KINOMEscan assay relative to control
HT-29 [20] = experiment: Cell cycle arrest in human HT-29 cells assessed as accumulation at G1-phase at 50 uM after 48 hrs by propidium iodide staining based flow cytometry (reference value: 41.86%); format: functional
SW-620 = experiment: Induction of apoptosis in human SW620 cells assessed as late apoptotic cells at 25 uM after 48 hrs by Annexin-V-FITC/propidium iodide staining based flow cytometry (reference value: 1.2%); format: functional
[21] = target: Tyrosine-protein kinase ZAP-70 (Homo sapiens) (UniProt P43403); experiment: Inhibition of human ZAP70 (D20 to G299 residues) expressed in mammalian expression system assessed as residual activity at 5 uM by KINOMEscan assay relative to control
Tyrosine-protein kinase ZAP-70 (Homo sapiens), sequence (P43403 whole entry, the tested form may be a part): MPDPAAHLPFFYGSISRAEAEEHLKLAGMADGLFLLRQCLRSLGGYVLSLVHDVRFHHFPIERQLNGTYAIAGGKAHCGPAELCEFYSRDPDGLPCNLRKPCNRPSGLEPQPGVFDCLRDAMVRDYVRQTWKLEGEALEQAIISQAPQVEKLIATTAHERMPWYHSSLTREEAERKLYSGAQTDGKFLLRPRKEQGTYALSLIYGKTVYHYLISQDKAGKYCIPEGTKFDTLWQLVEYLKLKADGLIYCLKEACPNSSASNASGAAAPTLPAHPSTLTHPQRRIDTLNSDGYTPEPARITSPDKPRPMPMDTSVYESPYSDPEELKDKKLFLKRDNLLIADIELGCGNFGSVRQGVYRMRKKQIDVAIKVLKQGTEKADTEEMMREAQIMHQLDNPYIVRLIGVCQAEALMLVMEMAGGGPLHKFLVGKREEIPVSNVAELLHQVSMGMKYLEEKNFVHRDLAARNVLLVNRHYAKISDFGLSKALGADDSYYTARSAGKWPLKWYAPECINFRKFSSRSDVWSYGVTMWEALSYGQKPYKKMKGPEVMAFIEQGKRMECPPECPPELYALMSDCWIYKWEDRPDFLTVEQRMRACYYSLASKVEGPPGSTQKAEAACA

[22] = target: Vascular endothelial growth factor receptor 2 (Homo sapiens, UniProt P35968); experiment: Binding affinity to human VEGFR2 (R787 to P1253 residues) expressed in mammalian expression system by KINOMEscan assay
Angiopoietin-1 receptor = Angiopoietin-1 receptor (Homo sapiens, UniProt Q02763); experiment: Inhibition of human TIE2 (N804 to T1112 residues) expressed in bacterial expression system assessed as residual activity at 5 uM by KINOMEscan assay relative to control
[23] = target: Mitogen-activated protein kinase 9 (Homo sapiens, UniProt P45984); experiment: Binding affinity to full length human JNK2 (M1 to Q382 residues) expressed in mammalian expression system by KINOMEscan assay
[24] = target: T1, MAP kinase-interacting serine/threonine-protein kinase 1; experiment: Binding affinity to full length human MKNK1 (M1 to L424 residues) expressed in mammalian expression system by KINOMEscan assay
HT-29 [25] = experiment: Upregulation of p21 expression in human HT-29 cells after 48 hrs by Western blot analysis; format: functional, cell-based
[26] = target: Serine/threonine-protein kinase RIO2 (Homo sapiens, UniProt Q9BVS4); experiment: Binding affinity to human RIOK2 (M1 to D313 residues) expressed in mammalian expression system by KINOMEscan assay

Serine/threonine-protein kinase PLK1, sequence (P53350 whole entry, the tested form may be a part): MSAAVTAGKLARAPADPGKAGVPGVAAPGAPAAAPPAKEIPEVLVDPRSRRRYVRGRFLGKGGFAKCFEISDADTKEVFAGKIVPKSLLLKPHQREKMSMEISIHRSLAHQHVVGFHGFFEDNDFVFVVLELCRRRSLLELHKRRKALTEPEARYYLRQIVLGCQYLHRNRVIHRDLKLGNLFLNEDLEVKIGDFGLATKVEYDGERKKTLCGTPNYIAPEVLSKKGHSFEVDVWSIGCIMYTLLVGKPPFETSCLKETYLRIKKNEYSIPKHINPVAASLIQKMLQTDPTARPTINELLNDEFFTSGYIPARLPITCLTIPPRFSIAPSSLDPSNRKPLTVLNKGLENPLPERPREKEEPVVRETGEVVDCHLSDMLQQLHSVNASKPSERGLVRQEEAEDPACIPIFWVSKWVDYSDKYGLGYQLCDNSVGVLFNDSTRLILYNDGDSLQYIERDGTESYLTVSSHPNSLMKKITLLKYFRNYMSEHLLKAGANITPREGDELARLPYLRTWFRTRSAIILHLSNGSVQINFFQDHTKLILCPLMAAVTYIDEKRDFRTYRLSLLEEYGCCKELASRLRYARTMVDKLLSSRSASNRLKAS

Compound `CC(C)CN(C(=O)c1cccnc1)c1c2ccccc2c(=O)n2c1[nH]c1ccccc12` has an Activity [1] of 100%, an Activity (HT-29 [2]) of 1.7% and an Activity [3] of 93%. The Activity [4] was 100%, the Activity [5] was 83% and the Activity [6] was 90%. The Activity (HT-29 [7]) was 88.4%, the Kd [8] was at least 5 µM and the Activity [9] was 97%. It also gave an Activity [10] of 82%, an Activity [11] of 100% and an Activity [12] of 76%. It also gave an Activity [13] of 98%, an Activity [14] of 100% and an Activity [15] of 92%. The Activity [16] was 100%, the Kd [17] was at least 5 µM and the Kd [18] was at least 5 µM. The Activity [19] was 97%, the Activity (HT-29 [20]) was 42.2% and the Activity (SW-620) was 4.1%. For the same compound, the Activity [21] was 89%, the Kd [22] was at least 5 µM and the Activity (Angiopoietin-1 receptor) was 88%. The Kd [23] was at least 5 µM, the Kd [24] was at least 5 µM and the Activity (HT-29 [25]) was “Dose-dependent effect”. For the same compound, the Kd [26] was at least 5 µM.
